Test results taken from patent publication US6962930B1, “Compounds, compositions and method suitable for amelioration of withdrawal syndromes and withdrawal-induced brain damage” (Lohocla Research Corporation, priority 1997, dated 2005).
Like-named read-outs stand apart in the source and are kept apart here.

Experiments:
[1] = tested on: ethanol withdrawal-induced seizures in C57BL/6 mice; assay: Ethanol withdrawal-induced seizures; assay type: in vivo; settings: i.p. at 0700, 1100 and 1400 hours; (±)HA-966 3, 10 or 17 mg/kg; 7-Cl kynurenic acid 10, 17 or 30 mg/kg; carbamazepine 17, 30 or 50 mg/kg
From the text: Male C57BL/6 mice were housed individually. One group of mice were each given a measured amount of liquid diet (BioServ) containing 6.7% ethanol (v/v) and a second, control group of mice each received the same diet with maltodextrin substituted isocalorically for ethanol, as their sole nutrient source for 7 days. A description of such a test can be found in Grant, K. A., et al., “ETHANOL WITHDRAWAL SEIZURES AND THE NMDA RECEPTOR COMPLEX,” Eur. J. Pharmacol., 176 289–296, (1990), the relevant disclosures of which are incorporated herein by reference. Pair-fed mice were given a volume of liquid diet equal to the average volume that the ethanol-fed mice consumed on the previous day. This treatment regimen produces mice that are functionally tolerant to and physically dependent on ethanol. Beginning at 0700 hours on the eighth day of the diet, ethanol-containing diet was replaced with control liquid diet (“withdrawal”).
Withdrawal seizure severity was assessed by measuring the incidence of handling-induced and spontaneous seizures, which were rated on a rating scale of 0 to 4, modified from a rating scale described by Grant, K. A., et al. in the above cited article. The rating scale was as follows: 0, little or no reaction; 1, slight jerkiness upon handling; 2, excitability increasing in magnitude to a clonic-tonic seizure; 3, spontaneous or instantaneous clonic-tonic seizure; 4, death while in a seizure. The mice were rated for seizure severity at 2, 4, 6, 7, 8, 9, 10, 11, 12 and 24 hours after ethanol withdrawal. Groups of ethanol-fed mice were injected intraperitoneally at 0700, 1100 and 1400 hours with saline, 3, 10 or 17 mg/kg (±)HA-966 (FIG. 5A) or 10, 17 or 30 mg/kg 7-Cl kynurenic acid (FIG. 5B).
Male C57BL/6 mice were fed ethanol in a liquid diet and the withdrawal seizure severity was assessed as described in EXAMPLE 5. Groups of ethanol-fed mice received a single injection (i.p.) of either vehicle (4% Tween-80, 0.5% carboxymethylcellulose in 0.9% saline) alone or of 100 mg/kg DCUK-OMe suspended in the vehicle administered at 0900 hours. The results are presented in FIG. 6A as the median withdrawal scores of vehicle-injected (N=14) or DCUK-OMe injected (N=6) mice in which * denotes P<0.05, statistically compared to vehicle-injected mice, in the Mann-Whitney U test. FIG. 6B presents the same data as the total withdrawal score, defined as the area enclosed by the curve connecting median withdrawal scores plotted against time as in FIG. 6A. The mean total withdrawal scores±SEM for the vehicle-injected group and DCUK-OMe-injected groups are plotted in which * denotes P<0.05, statistically compared to vehicle-injected mice, by the Student t-test.

naive C57BL/6 mice = assay: Accelerating rotarod, C57BL/6 mice; assay type: in vivo; settings: 50 mg/kg i.p., 15 to 120 min after injection
Method: Naive C57BL/6 mice were trained to remain on an accelerating rotarod (diameter 3 cm, 0–30 rpm over 5 min) for six consecutive trials. A description of this test for the acute incoordinating/ataxic effects of sedative/hypnotic drugs such as ethanol can be found in Hoffman, P. L., et al., Life Sciences, 41 611–619 (1987), the relevant disclosures of which are incorporated herein by reference.
The amount of time the mice remained on the rotarod during their last trial was used as their “base-line” score. The mice were then treated with saline (n=10) or 50 mg/kg (±)HA-966 (n=5). The length of time the mice remained on the rotarod was redetermined at 15, 30, 60, 90, and 120 min after drug injection (i.p.). Results for each mouse at each time point were expressed as a ratio (percentage) of their pre-injection base-line time.

[2] = target: T1, strychnine-insensitive glycine binding site on the NMDA receptor (Rattus norvegicus, UniProt P35439); assay: [3H]5,7-DCKA binding to rat cortical membranes; settings: 20 nM [3H]5,7-DCKA
T1 construct: from tissue; host or cells: rat cerebral cortex, crude synaptic (buffy coat) membranes
Method: Male Sprague-Dawley rats were killed, their brains removed, and their cerebral cortices dissected and binding of [^3H]5,7-dichlorokynurenate ([^3H]5,7-DCKA) assayed. [^3H]5,7-DCKA binding assays were performed in crude synaptic membranes prepared by a modification of the method of Jones, et al., J. Pharmacol. Methods, 21 161–168 (1989) the relevant disclosures of which are incorporated herein by reference. The pelleted “buffy coat”fraction was obtained by centrifugation and frozen at about −80° C. for at least 18 hours. On the day that the binding assays were performed, the pelleted membranes were resuspended in 50 mM HEPES-KOH buffer (pH 7.8) containing 0.08% TRITON® X-100. After stirring for about 30 min at about 4° C., the membranes were pelleted by recentrifugation and then washed twice by resuspension in buffer and centrifugation.
Binding assays were performed in 0.5 ml volume using 150–200 μg of tissue, 20 nM [^3H]5,7-DCKA and 3–300 μM DCUKA or MeO-DCUKA or 1–100 μM DCUK-OMe (all concentrations are final concentrations in 0.6% dimethyl sulfoxide (DMSO)). Incubations were performed for about 45 min at about 4° C. followed by termination by centrifugation. Bound radioactivity was quantitated by liquid scintillation spectroscopy. Non-specific binding was defined with 1 mM glycine.

[3] = target: voltage-sensitive sodium channels; assay: [3H]BTX binding to rat cortical synaptosomes
[4] = target: T2, NR1a/NR2A recombinant receptors (Homo sapiens, UniProt Q05586); assay: NMDA-induced currents in oocytes expressing NR1a/NR2A; assay type: cell-based; settings: 100 μM NMDA, 50 μM DCUKA, increasing glycine up to 100 μM
T2 construct: expressed in transfected cells; host or cells: Xenopus laevis oocytes, nuclear cDNA injection
Method: (§1) Oocytes were obtained from Xenopus laevis frogs (Nasco or Xenopus I) kept in aquarium tanks at 19–21° C., on a 12 hr light/dark cycle. Mature females were anesthetized by immersion for approximately 30 min in a 0.12% 3-aminobenzoic acid ethyl ester solution, a small incision was made in the abdominal wall and a piece of ovary was removed and placed in Modified Barth's solution (MBS; in mM) containing 88 NaCl, 1 KCl, 10 HEPES, 0.82 MgSO4, 2.4 NaHCO3, 0.91 CaCl2, 0.33 Ca(NO3)2 (pH 7.5). To facilitate manual dissection of oocytes, a section of ovary was transferred from MBS to a hypertonic buffer containing 108 mM NaCl, 2 mM KCl, 2 mM EDTA, 10 mM HEPES, pH 7.5 and theca and epithelial layers of mature oocytes (stages V and VI) were removed with surgical forceps. The follicular layer was removed by a 10 min immersion in 0.5 mg/ml of collagenase in buffer containing 83 mM NaCl, 2 mM KCl, 1 mM MgCl2 and 5 mM HEPES.
(§2) Human NR1a, NR2A and NR2B cDNAs in pCDNA-1Amp were transformed and amplified in XL-1 Blue cells and purified with the MaxPrep Qiagen kit. Oocytes were injected with cDNA into the nucleus in the following concentrations: NR1a/2A cDNAs 0.75 ng/30 nl 1:1 ratio, NR1a/2B cDNAs 3.0 ng/30 nl: 1:1 ratio. Injections were made with micropipettes (10 μm tip diameter) connected to a Drummond micropipettor attached to a micromanipulator. After injection, oocytes were individually placed in wells of 96-well microtiter plates containing incubation medium (MBS supplemented with 10 mg/l streptomycin, 10,000 U/l penicillin G, 50 mg/l gentamicin, 2 mM sodium pyruvate, 0.5 mM theophylline) that had been sterilized by passage through a […]. Oocytes were incubated at 19° C. for 2 to 4 days after injection.
(§3) Oocytes were placed in a rectangular chamber (approximately […]) and perfused (2 ml/min) with frog Ringer (in mM) containing 115 NaCl, 2.5 KCl, 1.8 CaCl2, 10 HEPES (pH 7.2). […] Control responses were always measured before and after addition of the DCUKA. […] Data are expressed as the % inhibition of the agonist response obtained in the absence of the drug.

[5] = target: T3, NR1a/NR2B recombinant receptors (Homo sapiens, UniProt Q05586); assay: NMDA-induced currents in oocytes expressing NR1a/NR2B; assay type: cell-based; settings: 100 μM NMDA, 50 μM DCUKA, increasing glycine
T3 construct: expressed in transfected cells; host or cells: Xenopus laevis oocytes, nuclear cDNA injection
Method: as §1, §2, §3

[6] = target: T1, strychnine-insensitive glycine binding site on the NMDA receptor; settings: none* = no displacement at 64 μM carbamazepine; taken from McCabe et al. 1993; cited from earlier work
[7] = tested on: heat shock protein (HSP72) in the hippocampus of C57BL/6 mice; assay: KA-induced increase in HSP72, Western blot; assay type: in vivo; settings: 100 mg/kg i.p. 30 min before KA 30 mg/kg i.p., hippocampus at 24 hours
Method: See, for example, Gonzales, M. F. et al., “HEAT SHOCK PROTEINS AS MARKERS OF NEURAL INJURY,” Mol. Brain Res., 6 93–100 (1989), the relevant portions of which are incorporated herein by reference.
Groups of male C57BL/6 mice separately received either (1) no injections (Naive), (2) KA injections (30 mg/kg, i.p.), (3) 100 mg/kg MeO-DCUKA administered intraperitoneally, or (4) a pretreatment of 100 mg/kg MeO-DCUKA administered (vehicle as in Example 9) intraperitoneally about 30 minutes before receiving an injection of KA (30 mg/kg, i.p.). All of the mice were killed 24 hours later, their brains removed and the hippocampus dissected. HSP72 protein levels were determined in sodium dodecylsulfate (SDS)-solubilized hippocampal lysates by SDS-PAGE electrophoretic separation and subsequent Western blot analysis using antibodies specific for HSP72/73 proteins. Immunoreactive bands were visualized on film using enhanced chemiluminescence and quantitated by image analysis.

Swiss-Webster mice = assay: Ethanol-induced loss of righting reflex; assay type: in vivo; settings: i.p. 30 minutes before ethanol; DCUK-OMe 100 mg/kg, DZP 1 mg/kg
Method: Swiss-Webster mice were pretreated (i.p.) with 100 mg/kg DCUK-OMe or 1 mg/kg diazepam (DZP) (in 5% Tween-80, 20% Intralipid) 30 minutes before receiving an i.p. administration of ethanol (either 2.3 or 3.2 g/kg, 20% v/v in saline.). The duration of the ethanol-induced loss of righting reflex (defined as the inability of the mouse to right itself when placed on its back in a trough) was measured. […] Since withdrawal signs are many times evident in individuals whose blood ethanol levels are dropping but are far from zero, the DCUK compounds would have an advantage over DZP in that the CNS depressant effects of ethanol would not be accentuated by DCUK compounds if the DCUK compounds are used in an alcohol-intoxicated individual.

naive Swiss-Webster mice = assay: Accelerating rotarod, Swiss-Webster mice; settings: i.p.; DCUK-OMe 100 or 500 mg/kg, diazepam 1 mg/kg, carbamazepine 50 mg/kg
[8] = depolarizing conditions (135 mM KCl), read-out: IC50 (μM) [3H]BTX binding, values in parentheses
[9] = non-depolarizing conditions, none = no displacement at 100 μM, read-out: IC50 (μM) [3H]BTX binding

Structure (SMILES)	ethanol withdrawal seizure severity [1]	IC50 [2] [µM]	IC50 [3, 8] [µM]	IC50 [3, 9] [µM]	further results
NC1CCN(O)C1=O (racemic) [(±)HA-966, 3-amino-1-hydroxypyrrolidin-2-one]	did not significantly reduce seizure severity	–	–	–	rotarod performance (ataxia/incoordination) (naive C57BL/6 mice): impaired in their ability to remain on the rotarod at all time points tested
O=C(O)c1cc(=O)c2c(Cl)cc(Cl)cc2[nH]1 [5,7-DCKA, 5,7-dichlorokynurenate, reference compound]	–	0.11	–	–	IC50 (μM) [3H]BTX binding ([3]; non-depolarizing conditions, none = no displacement at 100 μM): none; reversal by glycine of inhibition of NMDA-induced currents [4]: competitively antagonizes NMDA receptors regardless of subunit composition; reversal by glycine of inhibition of NMDA-induced currents [5]: competitively antagonizes NMDA receptors regardless of subunit composition
O=C(O)c1cc(O)c2ccc(Cl)cc2n1 [7-Cl kynurenic acid]	did not significantly reduce seizure severity	–	–	–	–
NC(=O)N1c2ccccc2C=Cc2ccccc21 [Carbamazepine, carbamazepine, reference compound]	no significant reduction of severity or the duration of the signs of withdrawal	–	56	71	IC50 (μM) [3H]5,7-DCKA binding [6]: none*
COc1ccccc1N(C(=O)Nc1cc(C(=O)O)nc2cc(Cl)cc(Cl)c12)c1ccccc1 [MeO-DCUKA]	–	35	30	64	KA-induced increase in HSP72 protein levels [7]: prevented
CN1C(=O)CN=C(c2ccccc2)c2cc(Cl)ccc21 [diazepam, reference compound]	–	–	–	–	duration of ethanol-induced loss of righting reflex (LORR) (Swiss-Webster mice): significant (*P<0.05) enhancement; rotarod performance (ataxia/incoordination) (naive Swiss-Webster mice): produced significant incoordination
